Where two headings read alike, the source gives them in different places.
Experiments:
[1] = biological target: T1, human Cathepsin D (Homo sapiens, UniProt P07339); test: Cathepsin D inhibition assay, hydrolysis of chromogenic substrate; type: biochemical
T1 construct: purchased
Experimental: (§1) The specific activity of plasmepsin II from Plasmodium falciparum (Plm II) cloned in and purified from Escherchia coli and commercially available human Cathepsin D were measured by following the hydrolysis of the chromogenic substrate Ala-Leu-Glu-Arg-Thr-nPhe-Phe-Ser-Phe-Pro-Thr-OH (California Peptide Research Inc., Napa, Calif.). The decrease in absorbance upon hydrolysis is monitored at 300 nm. Typical Plasmepsin II preparations hydrolyze chromogenic substrate at 4-5 s^−1 at 37° C. The inhibition assays were performed at 25° C. in 10 mM sodium formate, 2% DMSO, pH 4.0. These pH conditions mimic the conditions in the food vacuole of the parasite. […] Inhibition constants (Ki) for the inhibitors are obtained at the desired temperature and solvent conditions by measuring the rate of substrate hydrolysis at increasing amounts of inhibitors. Exemplary results from three compounds (KNI-10033, KNI-10030 and KNI-10006) are shown in FIG. 7A-C, and the results obtained with all KNI compounds tested are given in Table 1.

[2] = biological target: T2, plasmepsin II from Plasmodium falciparum (Plm II) (Plasmodium falciparum, UniProt P46925); test: Plasmepsin II inhibition assay, hydrolysis of chromogenic substrate; type: biochemical; conditions: for discrimination factor / Cathepsin D selectivity: Plasmepsin II versus Cathepsin D, fold; for Discrimination Factor: Fold Selectivity for Plasmepsin II over Cathepsin D: ratio of the Ki for Cathepsin D to the Ki for Plasmepsin II
T2 construct: made in house; host or cells: Escherichia coli
Experimental: FIG. 7A-C. Inhibition of Plasmepsin II from Plasmodium falciparum by KNI-10033, KNI-10030 and KNI-10006 at 20° C. in 10 mM sodium citrate, 100 mM NaCl, 2% DMSO, pH 4.0. The inhibition constants are 3 nM, 11 nM and 0.5 rLM respectively.
as §1

[3] = 25° C., 10 mM sodium formate, 2% DMSO, pH 4.0, fit to competitive inhibition, read-out: Ki CatD
[4] = Table 2, read-out: Ki Cathepsin D
[5] = 25° C., 10 mM sodium formate, 2% DMSO, pH 4.0, fit to competitive inhibition, read-out: Ki Plm II
[6] = Table 2, read-out: Ki Plasmepsin II
[7] = 20° C., 10 mM sodium citrate, 100 mM NaCl, 2% DMSO, pH 4.0, read-out: inhibition constant, Plasmepsin II (FIG. 7)

T1 sequence (P07339 65-412): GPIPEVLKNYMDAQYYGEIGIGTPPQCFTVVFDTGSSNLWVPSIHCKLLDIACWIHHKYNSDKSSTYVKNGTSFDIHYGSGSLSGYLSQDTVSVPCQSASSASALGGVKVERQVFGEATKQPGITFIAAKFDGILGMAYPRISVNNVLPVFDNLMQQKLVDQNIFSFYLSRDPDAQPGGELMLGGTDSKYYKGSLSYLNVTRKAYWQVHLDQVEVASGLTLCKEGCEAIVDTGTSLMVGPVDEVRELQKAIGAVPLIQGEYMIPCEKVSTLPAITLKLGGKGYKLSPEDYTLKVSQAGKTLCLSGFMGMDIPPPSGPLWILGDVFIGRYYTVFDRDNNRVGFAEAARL
T2 sequence (P46925 125-453): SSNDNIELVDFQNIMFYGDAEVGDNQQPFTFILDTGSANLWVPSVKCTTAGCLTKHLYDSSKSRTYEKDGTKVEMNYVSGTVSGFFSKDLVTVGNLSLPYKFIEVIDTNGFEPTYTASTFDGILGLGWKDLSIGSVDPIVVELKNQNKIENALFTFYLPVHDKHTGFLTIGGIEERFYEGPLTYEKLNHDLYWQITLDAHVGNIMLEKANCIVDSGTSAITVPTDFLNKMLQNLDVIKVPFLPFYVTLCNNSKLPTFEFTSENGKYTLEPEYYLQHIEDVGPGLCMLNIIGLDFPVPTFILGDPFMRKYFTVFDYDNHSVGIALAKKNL

SMILES | Ki [1, 3] [nM] | Ki [2, 5] [nM] | further results
CSCC(NC(=O)COc1cccc2cnccc12)C(=O)NC(Cc1ccccc1)C(O)C(=O)N1CSC(C)(C)C1C(=O)NC(C)(C)C (stereo not drawn) [KNI-227] | 1770 ± 230 | 36 ± 10 | Ki [1, 4]: 1770 nM; inhibition constants against Plasmepsin II, in words [2]: nanomolar and subnanomolar range; discrimination factor / Cathepsin D selectivity [2]: 50; Ki [2, 6]: 36 nM; Discrimination Factor: Fold Selectivity for Plasmepsin II over Cathepsin D [2]: ~49; Ki ([2]; read-out: Ki against Plasmepsin II): 30 nM
CSC[C@H](NC(=O)COc1cccc2cnccc12)C(=O)N[C@@H](Cc1ccccc1)[C@H](O)C(=O)N1CSC[C@H]1C(=O)NC(C)(C)C [KNI-272] | 2580 ± 300 | 1000 ± 200 | –
CC(C)(C)NC(=O)[C@@H]1CSCN1C(=O)[C@@H](O)[C@H](Cc1ccccc1)NC(=O)CCC(=O)O [KNI-357] | 8120 ± 1500 | 96900 ± 19100 | –
CC(C)(C)NC(=O)[C@@H]1CSCN1C(=O)[C@@H](O)[C@H](Cc1ccccc1)NC(=O)CC(C)(C)C(=O)O [KNI-391] | 1350 ± 80 | 12700 ± 1500 | Ki ([1]; read-out: Ki for Cathepsin D): 1350 nM
CC(C)(C)NC(=O)[C@H]1N(C(=O)[C@@H](O)[C@H](Cc2ccccc2)NC(=O)CC(C)(C)C(=O)O)CSC1(C)C [KNI-413] | 7260 ± 1400 | 1390 ± 500 | –
CC(C)[C@H](NC(=O)COc1cccc2cnccc12)C(=O)N[C@@H](Cc1ccccc1)[C@H](O)C(=O)N1CSC(C)(C)[C@H]1C(=O)NC(C)(C)C [KNI-492] | 3700 ± 350 | 340 ± 20 | –
CSC[C@H](NC(=O)COc1cccc2cnccc12)C(=O)N[C@@H](Cc1ccccc1)[C@@H](O)C(=O)N1CSC[C@H]1C(=O)NC(C)(C)C [KNI-529] | 8820 ± 2800 | 8090 ± 2600 | –
CC(C(=O)O)C(C)C(=O)N[C@@H](Cc1ccccc1)[C@H](O)C(=O)N1CSC[C@H]1C(=O)NC(C)(C)C (stereo partly drawn) [KNI-547] | 18200 ± 3300 | 30700 ± 8100 | –
Cc1c(O)cccc1C(=O)N[C@@H](Cc1ccccc1)[C@H](O)C(=O)N1CSC(C)(C)[C@H]1C(=O)NC(C)(C)C [KNI-577] | 3440 ± 700 | 590 ± 70 | –
Cc1cccc(C)c1OCC(=O)NC(Cc1ccccc1)C(O)C(=O)N1CSC(C)(C)C1C(=O)NC(C)(C)C (stereo not drawn) [KNI-727] | 1600 ± 300 | 70 ± 40 | Ki [1, 4]: 1600 nM; inhibition constants against Plasmepsin II, in words [2]: nanomolar and subnanomolar range; discrimination factor / Cathepsin D selectivity [2]: 22; Discrimination Factor: Fold Selectivity for Plasmepsin II over Cathepsin D [2]: ~23
CC[C@H](C)[C@H](NC(=O)COc1cccc2cnccc12)C(=O)N[C@@H](Cc1ccccc1)[C@H](O)C(=O)N1CSC(C)(C)[C@H]1C(=O)NC(C)(C)C [KNI-10001] | 1610 ± 330 | 359 ± 60 | –
CC(C)[C@H](NC(=O)c1ccccn1)C(=O)N[C@@H](Cc1ccccc1)[C@H](O)C(=O)N1CSC(C)(C)[C@H]1C(=O)NC(C)(C)C [KNI-10003] | 970 ± 100 | 1150 ± 190 | –
Cc1cccc(C)c1OCC(=O)N[C@@H](Cc1ccccc1)[C@H](O)C(=O)N1CSC(C)(C)[C@H]1C(=O)N[C@@H]1c2ccccc2C[C@@H]1O [KNI-10007] | 806 ± 600 | 71 ± 10 | –
COc1ccc(CCNC(=O)[C@H]2N(C(=O)[C@@H](O)[C@H](Cc3ccccc3)NC(=O)COc3c(C)cccc3C)CSC2(C)C)cc1 [KNI-10025] | 655 ± 83 | 75 ± 10 | –
CC(C)[C@H](NC(=O)c1cccc2ccccc12)C(=O)N[C@@H](Cc1ccccc1)[C@H](O)C(=O)N1CSC(C)(C)[C@H]1C(=O)NC(C)(C)C [KNI-10027] | 1030 ± 200 | 1070 ± 90 | –
CC(C)[C@H](NC(=O)Cc1cccc2ccccc12)C(=O)N[C@@H](Cc1ccccc1)[C@H](O)C(=O)N1CSC(C)(C)[C@H]1C(=O)NC(C)(C)C [KNI-10028] | 690 ± 70 | 1630 ± 157 | –
CSCC[C@H](NC(=O)COc1cccc2cnccc12)C(=O)N[C@@H](Cc1ccccc1)[C@H](O)C(=O)N1CSC(C)(C)[C@H]1C(=O)NC(C)(C)C [KNI-10032] | 2620 ± 390 | 535 ± 55 | –
CSC[C@H](NC(=O)COc1c(C)cccc1C)C(=O)N[C@@H](Cc1ccccc1)[C@H](O)C(=O)N1CSC(C)(C)[C@H]1C(=O)NC(C)(C)C [KNI-10041] | 1670 ± 256 | 496 ± 69 | –
CCC[C@H](NC(=O)COc1cccc2cnccc12)C(=O)N[C@@H](Cc1ccccc1)[C@H](O)C(=O)N1CSC(C)(C)[C@H]1C(=O)NC(C)(C)C [KNI-10042] | 2260 ± 166 | 222 ± 17 | –
Cc1cccc(C)c1OCC(=O)NC(Cc1ccccc1)C(O)C(=O)N1CSC(C)(C)C1C(=O)NC(CO)c1ccccc1 (stereo not drawn) [KNI-10044] | 1040 ± 178 | 532 ± 70 | –
CC(C)(C)NC(=O)[C@H]1N(C(=O)[C@@H](O)[C@H](Cc2ccccc2)NC(=O)COc2cccc(Cl)c2)CSC1(C)C [KNI-10045] | 6160 ± 671 | 1080 ± 165 | –
Cc1cccc(C)c1OCC(=O)N[C@@H](Cc1ccccc1)[C@H](O)C(=O)N1CSC(C)(C)[C@H]1C(=O)NCc1cccc(O)c1 [KNI-10048] | 771 ± 97 | 99 ± 14 | –
CC(C)C(NC(=O)OCc1ccccc1)C(=O)NC(Cc1ccccc1)C(O)C(=O)N1CSC(C)(C)C1C(=O)NC(C)(C)C (stereo not drawn) [KNI-10049] | 2580 ± 682 | 1510 ± 125 | –

These reach a lower Ki [1, 3]. Values come first.

Ki [1, 3] [nM] | Ki [2, 5] [nM] | SMILES | further results
112 ± 20 | 244 ± 20 | CC(C)[C@H](NC(=O)c1cc(=O)c2ccccc2o1)C(=O)N[C@@H](Cc1ccccc1)[C@H](O)C(=O)N1CSC(C)(C)[C@H]1C(=O)NC(C)(C)C [KNI-10002] | –
290 ± 90 | 522 ± 50 | CC(C)[C@H](NC(=O)c1ccc2ccccc2n1)C(=O)N[C@@H](Cc1ccccc1)[C@H](O)C(=O)N1CSC(C)(C)[C@H]1C(=O)NC(C)(C)C [KNI-10004] | –
507 ± 100 | 250 ± 190 | CC(C)[C@H](NC(=O)COc1cccc(Nc2ccccc2)c1)C(=O)N[C@@H](Cc1ccccc1)[C@H](O)C(=O)N1CSC(C)(C)[C@H]1C(=O)NC(C)(C)C [KNI-10005] | –
2 | – | Cc1cccc(C)c1OCC(=O)N[C@@H](Cc1ccccc1)[C@H](O)C(=O)N1CSC(C)(C)[C@H]1C(=O)N[C@H]1c2ccccc2C[C@H]1O [KNI-10006] | Ki [1, 4]: 2 nM; inhibition constants against Plasmepsin II, in words [2]: nanomolar and subnanomolar range; discrimination factor / Cathepsin D selectivity [2]: 4; Ki [2, 6]: 0.5 nM; Discrimination Factor: Fold Selectivity for Plasmepsin II over Cathepsin D [2]: 4; Ki ([2]; read-out: Ki (Plasmepsin II)): 0.5 nM
461 ± 140 | 169 ± 20 | COc1ccc(CNC(=O)[C@H]2N(C(=O)[C@@H](O)[C@H](Cc3ccccc3)NC(=O)COc3c(C)cccc3C)CSC2(C)C)cc1 [KNI-10008] | –
515 ± 47 | 2180 ± 250 | CC(C)[C@H](NC(=O)c1cc2ccccc2o1)C(=O)N[C@@H](Cc1ccccc1)[C@H](O)C(=O)N1CSC(C)(C)[C@H]1C(=O)NC(C)(C)C [KNI-10009] | –
105 ± 18 | 15 ± 5 | Cc1cccc(C)c1OCC(=O)N[C@@H](Cc1ccccc1)[C@H](O)C(=O)N1CSC(C)(C)[C@H]1C(=O)N[C@H]1CCc2ccccc21 [KNI-10026] | Ki [1, 4]: 105 nM; inhibition constants against Plasmepsin II, in words [2]: nanomolar and subnanomolar range; Ki [2, 6]: 15 nM; Discrimination Factor: Fold Selectivity for Plasmepsin II over Cathepsin D [2]: 7
282 ± 39 | 860 ± 90 | CC(C)[C@H](NC(=O)Cc1ccc2ccccc2c1)C(=O)N[C@@H](Cc1ccccc1)[C@H](O)C(=O)N1CSC(C)(C)[C@H]1C(=O)NC(C)(C)C [KNI-10029] | –
111 ± 15 | – | Cc1cccc(C)c1OCC(=O)N[C@@H](Cc1ccccc1)[C@H](O)C(=O)N1CSC(C)(C)[C@H]1C(=O)N[C@H](C)c1ccccc1 [KNI-10030] | Ki [1, 4]: 111 nM; Ki [2, 7]: 11 nM; Ki [2, 6]: 11 nM; Discrimination Factor: Fold Selectivity for Plasmepsin II over Cathepsin D [2]: ~10
130 ± 19 | 83 ± 7 | Cc1cccc(C)c1OCC(=O)N[C@@H](Cc1ccccc1)[C@H](O)C(=O)N1CSC(C)(C)[C@H]1C(=O)Nc1cccc2ccccc12 [KNI-10031] | –
40 ± 10 | – | CSC[C@H](NC(=O)COc1cccc2cnccc12)C(=O)N[C@@H](Cc1ccccc1)[C@H](O)C(=O)N1CSC(C)(C)[C@H]1C(=O)N[C@H]1Cc2ccccc2[C@H]1O [KNI-10033] | Ki ([1]; read-out: Ki for Cathepsin D): 40 nM; inhibition constants against Plasmepsin II, in words [2]: nanomolar and subnanomolar range; Ki [2, 7]: 3 nM; Ki [2, 6]: 3 nM; Discrimination Factor: Fold Selectivity for Plasmepsin II over Cathepsin D [2]: ~13
53 ± 8 | 22 ± 5 | Cc1cccc(C)c1OCC(=O)N[C@@H](Cc1ccccc1)[C@H](O)C(=O)N1CSC(C)(C)[C@H]1C(=O)N[C@H](CO)c1ccccc1 [KNI-10043] | Ki [1, 4]: 53 nM; inhibition constants against Plasmepsin II, in words [2]: nanomolar and subnanomolar range; Ki [2, 6]: 22 nM; Discrimination Factor: Fold Selectivity for Plasmepsin II over Cathepsin D [2]: 2.4
260 ± 23 | 96 ± 20 | Cc1cccc(C)c1OCC(=O)N[C@@H](Cc1ccccc1)[C@H](O)C(=O)N1CSC(C)(C)[C@H]1C(=O)NCc1ccccc1 [KNI-10046] | –
252 ± 53 | 55 ± 7 | Cc1cccc(C)c1OCC(=O)N[C@@H](Cc1ccccc1)[C@H](O)C(=O)N1CSC(C)(C)[C@H]1C(=O)NCc1ccccc1O [KNI-10047] | –

Reference: patent publication US7560482B2, “Inhibitors of plasmepsins” (The Johns Hopkins University, priority 2001, dated 2009)
